Key:
Assay type in all cases: biochemical
EGFR-kinase domain = target: T1, EGFR-kinase domain (Homo sapiens, UniProt P00533); test: In vitro inhibition of EGFR (Flash Plate assay); settings: full dose response 1.10^−6M to 1.10^−10M, read-out: C12 EGFR flash Score
T1 construct: 0.5 μg EGFR-kinase domain/well
Protocol: The in vitro inhibition of EGFR was assessed using either the Flash Plate technology or the glass-fiber filter technology as described by Davies, S. P. et al., Biochem J. (2000), 351; p. 95-105. The Flash Plate technology is generally described by B. A. Brown et al. in High Throughput Screening (1997), p. 317-328. Editor(s): Devlin, John P. Publisher: Dekker, New York, N.Y.
In the Flash Plate EGFR kinase reaction assay, a kinase substrate consisting of biotinylated poly(L-glutamic acid-L-tyrosine) (poly(GT)biotin), is incubated with the aforementioned protein in the presence of (^33P) radiolabeled ATP. (^33P) phosphorylation of the substrate is subsequently measured as light energy emitted using a streptavidin-coated Flash Plate (PerkinElmer Life Sciences) by trapping and quantifying the binding of the biotin tagged and radiolabeled substrate.
The EGFR kinase reaction is performed at 30° C. for 60 minutes in a 96-well microtiter FlashPlate (PerkinElmer Life Sciences). For each of the tested compounds a full dose response 1.10^−6M to 1.10^−10M has been performed. IRESSA® and Tarceva™ (erlotinib) were used as reference compounds. The 100 μl reaction volume contains 54.5 mM TrisHCl pH 8.0, 10 mM MgCl2, 100 μM Na3VO4, 5.0 μM unlabeled ATP, 1 mM DTT, 0.009% BSA, 0.8 μCi AT^33P, 0.35 μg/well poly(GT)biotin and 0.5 μg EGFR-kinase domain/well.
The reaction is stopped by aspirating the reaction mixture and washing the plate 3× with 200 μl wash/stop buffer (PBS+100 mM EDTA). After the final wash step 200 μl of wash/stop buffer was added to each well and the amount of phosphorylated (^33P) Poly(GT)biotin determined by counting (30 sec/well) in a microtiterplate scintillation counter.

Flt3 (h) = Flt3 (h) (Homo sapiens, UniProt P36888); test: Flt3 human kinase assay (glass-fiber filter); settings: test concentration of 10^−6M; read-out: C6 score (inhibition of Flt3 human)
Chain of Flt3 (h) (P36888 27-993): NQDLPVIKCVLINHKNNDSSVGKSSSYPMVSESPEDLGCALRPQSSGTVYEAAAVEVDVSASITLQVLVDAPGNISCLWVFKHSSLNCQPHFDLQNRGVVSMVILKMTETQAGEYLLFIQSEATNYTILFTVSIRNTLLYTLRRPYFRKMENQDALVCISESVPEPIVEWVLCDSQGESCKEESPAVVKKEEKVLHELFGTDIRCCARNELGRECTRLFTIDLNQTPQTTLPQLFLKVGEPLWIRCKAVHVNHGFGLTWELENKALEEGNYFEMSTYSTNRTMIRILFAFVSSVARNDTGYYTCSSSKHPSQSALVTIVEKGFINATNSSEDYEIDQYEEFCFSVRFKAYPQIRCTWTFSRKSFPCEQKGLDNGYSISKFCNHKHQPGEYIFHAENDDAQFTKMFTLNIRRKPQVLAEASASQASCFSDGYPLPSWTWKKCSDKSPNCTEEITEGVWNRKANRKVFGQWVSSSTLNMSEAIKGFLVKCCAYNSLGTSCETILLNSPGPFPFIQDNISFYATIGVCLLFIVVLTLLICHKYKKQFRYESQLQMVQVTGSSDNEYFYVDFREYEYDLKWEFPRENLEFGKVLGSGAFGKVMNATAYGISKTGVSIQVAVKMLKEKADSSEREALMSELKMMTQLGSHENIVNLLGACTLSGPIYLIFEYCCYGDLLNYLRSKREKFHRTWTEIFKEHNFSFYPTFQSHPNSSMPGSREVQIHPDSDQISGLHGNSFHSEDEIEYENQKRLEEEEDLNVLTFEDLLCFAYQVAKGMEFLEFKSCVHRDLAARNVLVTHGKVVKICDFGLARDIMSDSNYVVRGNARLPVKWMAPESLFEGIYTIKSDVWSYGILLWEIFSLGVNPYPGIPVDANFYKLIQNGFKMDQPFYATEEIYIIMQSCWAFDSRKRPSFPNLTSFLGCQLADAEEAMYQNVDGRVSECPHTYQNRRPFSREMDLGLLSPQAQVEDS
Protocol: (§1) The in vitro inhibition of a panel of kinases was assessed using either the glass-fiber filter technology as described by Davies, S. P. et al., Biochem J. (2000), 351; p. 95-105.
(§2) In the glass-fiber filter technology the activity of the kinase of interest is measured using an appropriate substrate that is incubated with the aforementioned kinase protein in the presence of (^33P) radiolabeled ATP. (^33P) Phosphorylation of the substrate is subsequently measured as radioactivity bound on a glass fiber-filter.
(§3) All kinases are pre-diluted to a 10× working concentration prior to addition into the assay. The composition of the dilution buffer for each kinase is detailed below.
(§4) In a final reaction volume of 25 μl, Flt3 (h) (5-10 mU) is incubated with 8 mM MOPS pH 7.0, 0.2 mM EDTA, 50 μM […], 10 mM MgAcetate and [γ-^33P-ATP] (specific activity approx. 500 cpm/pmol, concentration as required). The reaction is initiated by the addition of the MgATP mix. After incubation for 40 minutes at room temperature, the reaction is stopped by the addition of 5 μl of a 3% phosphoric acid solution. 10 μl of the reaction is then spotted onto a P30 filtermat and washed three times for 5 minutes in 75 mM phosphoric acid and once in methanol prior to drying and scintillation counting.

Yes (h) = Yes (h) (Homo sapiens, UniProt P07947); test: Yes human kinase assay (glass-fiber filter); settings: test concentration of 10^−6M; read-out: C11 score (inhibition of Yes human)
Chain of Yes (h) (P07947 whole entry): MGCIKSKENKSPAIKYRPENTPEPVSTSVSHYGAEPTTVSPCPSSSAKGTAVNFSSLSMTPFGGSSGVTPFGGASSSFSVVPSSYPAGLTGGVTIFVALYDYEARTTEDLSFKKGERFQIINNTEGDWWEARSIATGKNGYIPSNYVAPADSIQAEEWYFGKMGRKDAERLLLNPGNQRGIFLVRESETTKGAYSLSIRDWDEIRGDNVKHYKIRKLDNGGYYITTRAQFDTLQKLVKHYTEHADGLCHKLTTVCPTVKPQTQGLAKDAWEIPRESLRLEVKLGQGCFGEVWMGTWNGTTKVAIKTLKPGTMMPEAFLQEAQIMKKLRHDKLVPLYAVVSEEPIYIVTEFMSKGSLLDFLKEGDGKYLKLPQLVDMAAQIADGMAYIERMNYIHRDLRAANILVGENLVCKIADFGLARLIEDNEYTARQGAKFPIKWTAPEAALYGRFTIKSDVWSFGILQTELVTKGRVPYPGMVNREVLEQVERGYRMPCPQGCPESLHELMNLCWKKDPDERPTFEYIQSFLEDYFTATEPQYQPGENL
Protocol: as §2, §3
In a final reaction volume of 25 μl, Yes (h) (5-10 mU) is incubated with 8 mM MOPS pH 7.0, 0.2 mM EDTA, 0.1 mg/ml poly(Glu, Tyr) 4:1, 10 mM MgAcetate and [γ-^33P-ATP] (specific activity approx. […], concentration as required). The reaction is initiated by the addition of the MgATP mix. After incubation for 40 minutes at room temperature, the reaction is stopped by the addition of 5 μl of a 3% phosphoric acid solution. 10 μl of the reaction is then spotted onto a Filtermat A and washed three times for 5 minutes in 75 mM phosphoric acid and once in methanol prior to drying and scintillation counting.

Abl (h) = Abl (h) (Homo sapiens, UniProt P00519); test: Abl human kinase assay (glass-fiber filter); settings: test concentration of 10^−6M; read-out: C1 score (inhibition of Abl human)
Chain of Abl (h) (P00519 whole entry): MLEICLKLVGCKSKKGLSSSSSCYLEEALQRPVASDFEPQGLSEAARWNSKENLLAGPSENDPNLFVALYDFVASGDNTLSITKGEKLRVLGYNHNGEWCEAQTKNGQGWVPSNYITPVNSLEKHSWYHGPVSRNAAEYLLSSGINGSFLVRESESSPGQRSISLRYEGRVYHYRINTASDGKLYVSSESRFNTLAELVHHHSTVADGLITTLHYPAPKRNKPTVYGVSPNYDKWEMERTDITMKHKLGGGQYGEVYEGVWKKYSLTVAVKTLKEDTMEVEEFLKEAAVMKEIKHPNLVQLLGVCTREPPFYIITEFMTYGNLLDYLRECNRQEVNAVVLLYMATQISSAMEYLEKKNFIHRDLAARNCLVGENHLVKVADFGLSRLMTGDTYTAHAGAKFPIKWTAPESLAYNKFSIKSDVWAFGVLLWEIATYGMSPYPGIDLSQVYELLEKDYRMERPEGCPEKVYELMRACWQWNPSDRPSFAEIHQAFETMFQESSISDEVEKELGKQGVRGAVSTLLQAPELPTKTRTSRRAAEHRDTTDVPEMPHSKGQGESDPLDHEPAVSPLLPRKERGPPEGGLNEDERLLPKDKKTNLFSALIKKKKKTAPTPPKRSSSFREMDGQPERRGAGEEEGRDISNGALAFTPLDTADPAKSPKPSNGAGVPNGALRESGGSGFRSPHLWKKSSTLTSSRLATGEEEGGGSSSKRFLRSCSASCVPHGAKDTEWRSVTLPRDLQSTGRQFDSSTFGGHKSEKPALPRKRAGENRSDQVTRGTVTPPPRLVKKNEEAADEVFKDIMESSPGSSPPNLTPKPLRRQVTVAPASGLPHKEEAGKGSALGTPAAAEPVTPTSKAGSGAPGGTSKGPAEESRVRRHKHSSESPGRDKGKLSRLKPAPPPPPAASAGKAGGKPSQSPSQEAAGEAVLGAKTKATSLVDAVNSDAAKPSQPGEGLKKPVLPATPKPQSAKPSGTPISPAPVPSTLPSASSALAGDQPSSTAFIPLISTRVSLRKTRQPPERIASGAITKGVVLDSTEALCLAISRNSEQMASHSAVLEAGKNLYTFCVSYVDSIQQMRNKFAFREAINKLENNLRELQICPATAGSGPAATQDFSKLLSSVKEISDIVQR
Protocol: as §2, §3
(specific activity approx. 500 cpm/pmol, concentration as required). The reaction is initiated by the addition of the MgATP mix. After incubation for 40 minutes at room temperature, the reaction is stopped by the addition of 5 μl of a 3% phosphoric acid solution. 10 μl of the reaction is then spotted onto a P30 filtermat and washed three times for 5 minutes in 75 mM phosphoric acid and once in methanol prior to drying and scintillation counting.

cSRC (h) = cSRC (h) (Homo sapiens, UniProt P12931); test: cSRC human kinase assay (glass-fiber filter); settings: test concentration of 10^−6M; read-out: C3 score (inhibition of cSRC human)
Chain of cSRC (h) (P12931 whole entry): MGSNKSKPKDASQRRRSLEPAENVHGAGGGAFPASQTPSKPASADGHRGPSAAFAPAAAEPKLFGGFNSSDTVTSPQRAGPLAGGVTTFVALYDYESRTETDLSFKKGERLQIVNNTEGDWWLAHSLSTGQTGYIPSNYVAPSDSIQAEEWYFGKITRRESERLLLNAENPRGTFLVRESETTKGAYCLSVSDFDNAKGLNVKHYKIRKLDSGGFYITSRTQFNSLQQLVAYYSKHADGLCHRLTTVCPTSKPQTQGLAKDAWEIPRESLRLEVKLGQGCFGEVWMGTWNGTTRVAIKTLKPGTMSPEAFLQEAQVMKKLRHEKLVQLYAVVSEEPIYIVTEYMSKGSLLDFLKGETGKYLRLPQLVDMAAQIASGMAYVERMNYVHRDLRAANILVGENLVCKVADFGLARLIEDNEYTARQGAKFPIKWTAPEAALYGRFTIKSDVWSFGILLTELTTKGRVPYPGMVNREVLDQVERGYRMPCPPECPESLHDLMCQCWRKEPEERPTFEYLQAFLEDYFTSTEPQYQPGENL
Protocol: (§5) The in vitro inhibition of a panel of kinases was assessed using either the glass-fiber filter technology as described by Davies, S. P. et al., Biochem J. […] In the glass-fiber filter technology the activity of the kinase of interest is measured using an appropriate substrate that is incubated with the aforementioned kinase protein in the presence of (^33P) radiolabeled ATP. (^33P) Phosphorylation of the substrate is subsequently measured as radioactivity bound on a glass fiber-filter. All kinases are pre-diluted to a 10× working concentration prior to addition into the assay. The composition of the dilution buffer for each kinase is detailed below. […] The reaction is initiated by the addition of the MgATP mix. […] 10 μl of the reaction is then spotted onto a P30 filtermat and washed three times for 5 minutes in 75 mM phosphoric acid and once in methanol prior to drying and scintillation counting.

Lck (h) = Lck (h) (Homo sapiens, UniProt P06239); test: Lck human kinase assay (glass-fiber filter); settings: test concentration of 10^−6M; read-out: C9 score (inhibition of Lck human)
Chain of Lck (h) (P06239 whole entry): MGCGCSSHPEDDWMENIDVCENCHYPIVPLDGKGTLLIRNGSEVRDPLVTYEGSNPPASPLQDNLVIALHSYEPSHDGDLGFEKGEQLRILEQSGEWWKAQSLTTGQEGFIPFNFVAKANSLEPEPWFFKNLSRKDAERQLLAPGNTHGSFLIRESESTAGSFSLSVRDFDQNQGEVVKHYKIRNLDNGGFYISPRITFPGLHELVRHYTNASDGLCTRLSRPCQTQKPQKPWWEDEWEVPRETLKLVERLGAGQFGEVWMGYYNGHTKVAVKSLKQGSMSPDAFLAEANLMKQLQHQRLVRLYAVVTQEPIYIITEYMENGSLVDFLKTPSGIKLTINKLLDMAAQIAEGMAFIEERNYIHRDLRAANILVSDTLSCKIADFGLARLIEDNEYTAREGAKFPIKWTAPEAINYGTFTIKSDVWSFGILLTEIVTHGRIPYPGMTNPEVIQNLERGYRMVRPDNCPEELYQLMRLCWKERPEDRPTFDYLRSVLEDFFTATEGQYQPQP
Protocol: as §5, with “below. [table]” for “below.”

Fms (h) = Fms (h) (Homo sapiens, UniProt P07333); test: Fms human kinase assay (glass-fiber filter); settings: test concentration of 10^−6M; read-out: C7 score (inhibition of Fms human)
Chain of Fms (h) (P07333 20-972): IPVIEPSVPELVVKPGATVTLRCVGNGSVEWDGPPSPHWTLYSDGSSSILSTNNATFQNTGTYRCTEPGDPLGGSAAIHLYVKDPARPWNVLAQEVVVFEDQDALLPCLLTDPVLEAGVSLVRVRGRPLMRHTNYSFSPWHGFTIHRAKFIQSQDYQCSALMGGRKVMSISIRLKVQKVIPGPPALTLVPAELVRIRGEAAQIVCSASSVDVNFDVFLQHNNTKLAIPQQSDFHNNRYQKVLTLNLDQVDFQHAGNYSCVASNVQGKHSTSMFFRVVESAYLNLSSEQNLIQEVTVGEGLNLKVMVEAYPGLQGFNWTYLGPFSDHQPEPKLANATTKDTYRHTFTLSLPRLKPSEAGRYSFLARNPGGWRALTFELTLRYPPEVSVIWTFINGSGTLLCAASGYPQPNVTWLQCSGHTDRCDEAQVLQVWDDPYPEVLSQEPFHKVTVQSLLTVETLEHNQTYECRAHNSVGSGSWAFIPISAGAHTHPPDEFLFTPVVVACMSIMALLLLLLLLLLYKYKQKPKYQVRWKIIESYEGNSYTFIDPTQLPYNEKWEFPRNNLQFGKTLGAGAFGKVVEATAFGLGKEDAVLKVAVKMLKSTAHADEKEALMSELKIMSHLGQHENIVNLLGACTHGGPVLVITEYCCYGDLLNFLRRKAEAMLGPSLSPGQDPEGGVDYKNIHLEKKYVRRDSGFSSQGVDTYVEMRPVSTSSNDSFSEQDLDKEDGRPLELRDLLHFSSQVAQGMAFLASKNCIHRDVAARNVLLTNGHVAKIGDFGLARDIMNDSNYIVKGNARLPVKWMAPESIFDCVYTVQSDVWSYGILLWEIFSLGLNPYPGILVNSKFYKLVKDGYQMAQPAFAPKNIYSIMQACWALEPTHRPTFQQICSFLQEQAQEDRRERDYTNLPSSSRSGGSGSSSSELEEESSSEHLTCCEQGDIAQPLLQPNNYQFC
Protocol: as §1, §2, §3
as §4, with “μl, Fms” for “μl, Flt3”, “EDTA, 250” for “EDTA, 50”

Lyn (h) = Lyn (h) (Homo sapiens, UniProt P07948); test: Lyn human kinase assay (glass-fiber filter); settings: test concentration of 10^−6M; read-out: C10 score (inhibition of Lyn human)
Protocol: as §2, §3
In a final reaction volume of […] (h) (5-10 mU) is incubated with 50 mM Tris pH 7.5, 0.1 mM EGTA, 0.1 mM Na3VO4, 0.1% O-mercaptoethanol, 0.1 mg/ml poly(Glu, Tyr) 4:1, 10 mM MgAcetate and [γ-^33P-ATP] (specific activity approx. 500 cpm/pmol, concentration as required). The reaction is initiated by the addition of the MgATP mix. After incubation for 40 minutes at room temperature, the reaction is stopped by the addition of 5 μl of a 3% phosphoric acid solution. 10 μl of the reaction is then spotted onto a Filtennat A and washed three times for 5 minutes in 75 mM phosphoric acid and once in methanol prior to drying and scintillation counting.

T1 sequence (P00533 712-979 limits assumed): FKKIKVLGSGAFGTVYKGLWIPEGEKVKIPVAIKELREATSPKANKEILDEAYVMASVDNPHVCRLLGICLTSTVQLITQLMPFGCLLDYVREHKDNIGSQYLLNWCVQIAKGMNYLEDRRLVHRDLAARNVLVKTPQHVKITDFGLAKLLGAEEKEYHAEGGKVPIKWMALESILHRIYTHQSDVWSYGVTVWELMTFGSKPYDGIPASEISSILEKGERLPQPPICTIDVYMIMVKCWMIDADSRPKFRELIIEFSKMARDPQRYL

Structure (SMILES)	IC50 (EGFR-kinase domain)	also measured
O=C1CCCCCCNC(=O)c2cccc(c2)Nc2cc(ncn2)Nc2cccc(c2)CN1 [Compound 57, 2,4,6,8,15,23-hexaazatetracyclo[23.3.1.1~3,7~.1~9,13~]hentriaconta-1(29),3,5,7(31),9,11,13(30),25,27-nonaene-14,22-dione]		inhibition at 1 µM (Flt3 (h)): 30 to 60%
CCN1CCNC(=O)C2CN(CCO2)C(=O)COc2ccc(cc2)Nc2cc(ncn2)Nc2cccc(c2)C1 (stereo not shown) [Compound 136]	< 1 µM	
COc1ccc2cc1OCCNC(=O)C1CCCN(C1)C(=O)COc1ccc(cc1)Nc1cc(ncn1)N2 (stereo not shown) [Compound 140]	1 to 10 µM	
O=C1NCc2cccc(c2)Nc2ccnc(n2)Nc2cccc1c2 [Compound 24, 2,4,8,15,23-pentaazatetracyclo[15.3.1.1~3,7~.1~9,13~]tricosa-1(21),3,5,7(23),9,11,13(22),17,19-nonaen-16-one]		inhibition at 1 µM (Yes (h)): 10 to 30%; inhibition at 1 µM (Abl (h)): 30 to 60%; inhibition at 1 µM (cSRC (h)): 10 to 30%; inhibition at 1 µM (Lck (h)): 30 to 60%; inhibition at 1 µM (Fms (h)): 10 to 30%; inhibition at 1 µM (Flt3 (h)): 60 to 80%; inhibition at 1 µM (Lyn (h)): 10 to 30%
CCN1CCC(=O)NCCOc2cc(ccc2OC)Nc2cc(ncn2)Nc2ccc(Cl)c(c2)C1 [Compound 113]	1 to 10 µM	
COc1ccc2cc1OCCNC(=O)CCCN(C)Cc1cc(ccc1Cl)Nc1cc(ncn1)N2 [Compound 111]	1 to 10 µM	
O=C1CNC(=O)CNC(=O)c2cccc(c2)Nc2cc(ncn2)Nc2cccc(c2)CN1 [Compound 61]		inhibition at 1 µM (Yes (h)): 10 to 30%; inhibition at 1 µM (Fms (h)): 60 to 80%
CCN1CCNC(=O)C(CC2CCCCC2)NC(=O)COc2ccc(cc2)Nc2cc(ncn2)Nc2cccc(c2)C1 (stereo not shown) [Compound 135]	1 to 10 µM	
O=C1COc2cccc(c2)Nc2nccc(n2)Nc2cccc(c2)OCCCN1 [Compound 29, 14,21-dioxa-2,4,8,18,28-pentaazatetracyclo[20.3.1.1~3,7~.1~9,13~]octacosa-1(26),3,5,7(28),9,11,13(27),22,24-nonaen-19-one]		inhibition at 1 µM (Yes (h)): 60 to 80%; inhibition at 1 µM (cSRC (h)): 10 to 30%; inhibition at 1 µM (Lck (h)): 30 to 60%; inhibition at 1 µM (Fms (h)): 10 to 30%; inhibition at 1 µM (Flt3 (h)): > 80%
COc1ccc2cc1OCCNC(=O)C1CCCCN1Cc1cc(ccc1Cl)Nc1cc(ncn1)N2 (racemic) [Compound 145]	1 to 10 µM	
CC(C)C1NC(=O)c2cccc(c2)Nc2cc(ncn2)Nc2cccc(c2)CNC(=O)CNC1=O (stereo not shown) [Compound 60]		inhibition at 1 µM (Yes (h)): 10 to 30%; inhibition at 1 µM (Fms (h)): 10 to 30%
COc1ccc2cc1OCCNC(=O)CC(CC(C)C)NC(=O)COc1ccc(cc1)Nc1cc(ncn1)N2 (stereo not shown) [Compound 141]	1 to 10 µM	
COc1ccc2cc1OCCNC(=O)CCN1CCC(CC1)N(C)Cc1cc(ccc1Cl)Nc1cc(ncn1)N2 [Compound 127]	1 to 10 µM	

Second part, led by results:

IC50 (EGFR-kinase domain)	Structure (SMILES)	also measured
1 to 10 µM	CN1Cc2cccc(c2)Nc2cc(ncn2)Nc2ccccc2OCCCCCNC(=O)CCN2CCC1CC2 [Compound 186]	
1 to 10 µM	CCN1CC(=O)NCCOc2cc(ccc2OC)Nc2cc(ncn2)Nc2ccc(Cl)c(c2)C1 [Compound 183]	
1 to 10 µM	CN1Cc2cccc(c2)Nc2cc(ncn2)Nc2cccc(c2)OCCCCNC(=O)CCN2CCC1CC2 [Compound 196]	
1 to 10 µM	O=C1COc2cccc(c2)Nc2cc(ncn2)Nc2cccc(c2)OCCCCCNC(=O)C(Cc2cccnc2)N1 (stereo not shown) [Compound 180]	
1 to 10 µM	COCC1NC(=O)COc2cccc(c2)Nc2cc(ncn2)Nc2cccc(c2)OCCCCCNC1=O (stereo not shown) [Compound 179]	
1 to 10 µM	COc1ccc2cc1OCCNC(=O)C(CCSC)NC(=O)COc1cccc(c1)Nc1cc(ncn1)N2 (stereo not shown) [Compound 173]	
1 to 10 µM	COc1ccc2cc1OCCNC(=O)C1CN(CCC1O)Cc1cc(ccc1Cl)Nc1cc(ncn1)N2 (stereo not shown) [Compound 182]	
1 to 10 µM	CCN1CC(=O)NCCCCCOc2ccccc2Nc2cc(ncn2)Nc2cccc(c2)C1 [Compound 190]	
1 to 10 µM	O=C1CCN(CCN2CCOCC2)Cc2cccc(c2)Nc2cc(ncn2)Nc2cccc(c2)OCCCCN1 [Compound 195]	

— US8148388B2, “2,4 (4,6) pyrimidine derivatives” (Janssen Pharmaceutica, N.V., priority 2004, dated 2012)
